Consider 17 compounds from publication PMC5324103 (Scientific Reports, 2017).

One data set has as its target T1, GPBAR1 (Homo sapiens, UniProt Q8TDU6).
T1 construct: expressed in transfected cells; host or cells: HEK-293T
T1 sequence (Q8TDU6 1-330): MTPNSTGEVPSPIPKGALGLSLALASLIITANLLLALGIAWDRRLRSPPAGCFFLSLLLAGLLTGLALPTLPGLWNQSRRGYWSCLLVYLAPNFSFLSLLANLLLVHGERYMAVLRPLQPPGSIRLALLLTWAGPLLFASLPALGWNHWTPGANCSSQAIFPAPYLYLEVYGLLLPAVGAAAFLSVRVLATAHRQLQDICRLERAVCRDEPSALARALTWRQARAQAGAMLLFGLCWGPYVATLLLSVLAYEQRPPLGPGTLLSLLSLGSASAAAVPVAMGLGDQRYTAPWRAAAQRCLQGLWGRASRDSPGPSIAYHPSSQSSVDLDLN
Nature of the data set: GPBAR1 transactivation, CRE-luciferase reporter assay in HEK-293T cells. The data set is classed as cell-based. The note with it: dose-response 1-50 μM, mean ± SE of 3 experiments in duplicate, read-out: GPBAR1 Affinity (EC50). (Reporter assays use an easily measured gene product as a stand-in for the process of interest.)

In a further data set the test system is ABCA1 mRNA expression. Nature of the data set: RT-PCR of LXRα target gene ABCA1 in HepG2 cells. The settings on record: Homo sapiens, HepG2, 18 h, read-out: EC50 for induction of ABCA1 gene expression.
For a further data set, the system named is SREBP1c mRNA expression. Briefly: RT-PCR of LXRα target gene SREBP1c in HepG2 cells. The note with it: Homo sapiens, HepG2, 18 h, read-out: EC50 for induction of SREBP1c gene expression.
The test system of another data set is C57BL6 mice. Nature of the data set: Two-week oral administration to intact C57BL6 mice (serum chemistry, liver histology, liver and ileum gene expression). The note with it: 30 mg/Kg daily by oral gavage, two weeks. In kind it is in vivo. As for the experimental part:
C57BL6 mice were administered with 14 (30 mg/Kg daily by oral gavage) for two weeks.
C57BL6 mice were originally donated by Dr. Galya Vassileva (Schering-Plough Research Institute, Kenilworth). The colonies were maintained in the animal facility of University of Perugia. […] Mice were housed under controlled temperatures (22 °C) and photoperiods (12:12-h light/dark cycle), allowed unrestricted access to standard mouse chow and tap water and allowed to acclimate to these conditions for at least 5 days before inclusion in an experiment. The study was conducted in agreement with the Italian law and the protocol was approved by ethical committee of University of Perugia and by National committee of Ministry of Health (permission n. 42/2014-B). The Veterinarian monitored the health and body conditions of the animals daily in the animal facility. The study protocol caused minor suffering; however, animals that lost more than 25% of the initial body weight were euthanized. At the day of sacrifice mice were deeply anesthetized with a mixture of tiletamine […] and zolazepam […]/xylazine at a dose of 50/5 mg/Kg. Blood, liver and terminal ileum were collected for further analysis. Aspartate aminotransferase (AST), total cholesterol and triglycerides were measured by routine biochemical clinical chemistry. For histological examination, portions of liver lobes were fixed in 10% formalin, embedded in paraffin, sectioned (5 μm thin) and stained with Hematoxylin/Eosin (H&E) for morphometric analysis.

Another data set addresses T2, LXRα (Homo sapiens, UniProt Q13133).
T2 construct: expressed in transfected cells; host or cells: HepG2
T2 sequence (Q13133 209-447 limits assumed): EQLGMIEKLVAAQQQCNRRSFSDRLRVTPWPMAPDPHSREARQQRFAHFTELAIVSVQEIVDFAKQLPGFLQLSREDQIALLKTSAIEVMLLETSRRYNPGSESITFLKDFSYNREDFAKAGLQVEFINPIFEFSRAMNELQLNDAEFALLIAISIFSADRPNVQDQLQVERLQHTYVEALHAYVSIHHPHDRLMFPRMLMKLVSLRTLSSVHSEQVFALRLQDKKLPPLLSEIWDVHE
Briefly: LXRα transactivation, luciferase reporter assay in HepG2 cells. The data set is classed as cell-based. The settings on record: for Emax at 10 µM: compound 10 μM vs GW3965 10 μM (=100%), NA = no activity at 10 μM, read-out: LXRα Efficacy (% vs GW3965); for EC50: dose-response 1-50 μM, mean ± SE, read-out: LXRα Affinity (EC50). As for the experimental part:
Derivatives 4–30 were tested for their activity in a luciferase reporter assay with HepG2 and HEK-293T cells transfected with LXRα,β and GPBAR1, respectively. Table 1 reports the efficacy of tested compounds compared to those of reference compounds, GW3965 for LXRα/β and TLCA for GPBAR1.
Each compound was tested at the concentration of 10 μM and transactivation activity of GW3965 on LXRs and TLCA on CRE (i.e. TGR5/GPBAR1) was considered equal to 100%.
To evaluate LXRα mediated transactivation, HepG2 cells were transfected with 20 ng of the reporter vector p(UAS)5XTKLuc, 100 ng of a vector containing the ligand binding domain of LXRα cloned upstream of the GAL4-DNA binding domain (i.e. pSG5-LXRαLBD-GAL4DBD) and […] pGL4.70 (Promega), a vector encoding the human Renilla gene. To evaluate GPBAR1 mediated transactivation, HEK-293T cells were transfected with 200 ng of human pGL4.29 (Promega), a reporter vector containing a cAMP response element (CRE) that drives the transcription of the luciferase reporter gene luc2P, with 100 ng of pCMVSPORT6-human GPBAR1, and with 100 ng of pGL4.70 Renilla. To evaluate FXR mediated transactivation, HepG2 cells were transfected with 100 ng of human pSG5-FXR, 100 ng of human pSG5-RXR, 200 ng of the reporter vector p(hsp27)-TK-LUC containing the FXR response element IR1 cloned from the promoter of heat shock protein 27 (hsp27) and with 100 ng of pGL4.70 Renilla. At 24 h post-transfection, cells were stimulated 18 h with 10 μM GW3965, TLCA, or CDCA and compounds 4–30 (10 μM). Luciferase activities were assayed and normalized with Renilla activities. Dose-response curves were performed in HepG2 and HEK-293T cells transfected as described above and then treated with increasing concentrations of compounds 4, 5, 8, 9, 12–15, 17, 20, 21, 24, 25, 27, 29, 30 (1, 5, 10, 25 and 50 μM). At 18 h post stimulations, cellular lysates were assayed for luciferase and Renilla activities using the Dual-Luciferase Reporter assay system (E1980, Promega). Luminescence was measured using Glomax 20/20 luminometer (Promega). Luciferase activities (RLU) were normalized with Renilla activities (RRU).

Data set [1] concerns pro-glucagon mRNA expression. Briefly: RT-PCR of GPBAR1 target gene pro-glucagon in Glutag cells. The settings on record: Mus musculus, 18 h, read-out: EC50 for induction of pro-glucagon mRNA.
Procedure: (§1) HepG2 and Glutag cells were plated at 1 × 10^6 cells/well in a 6 well plate.
(§2) Total RNA was isolated from HepG2 or Glutag cells and from animal tissues (liver and terminal ileum) using the TRIzol reagent according to the manufacturer’s specifications (Invitrogen). One microgram of purified RNA was treated with DNase-I and reverse transcribed with Superscript II (Invitrogen). For Real Time PCR, 25 ng template was dissolved in 25 μL containing 200 nmol/L of each primer and 12.5 μL of 2 × SYBR FAST Universal ready mix (Invitrogen). […] The relative mRNA expression was calculated and expressed as 2^(−ΔΔCt).
Data set [2] concerns GPBAR1 (also known as TGR5). The note with it: in vitro studies; cited from earlier work.

Each structure is given as a SMILES string.

Procedure for ABCA1 mRNA expression: as §1, §2
Procedure for SREBP1c mRNA expression: as §1, §2

As a reminder, the EC50 is the concentration giving half of the maximal effect. With `CC(C)CCC(C)C1CCC2C3CC(O)C4CC(O)CCC4(C)C3CCC12C` (stereo not shown) [Compound 14], the concentration giving a half-maximal response (EC50) was found to be 4.9 ± 0.2 µM at GPBAR1; 8.3 µM in the data set with ABCA1 mRNA expression; 5.8 µM in the data set on SREBP1c mRNA expression; 3.2 ± 0.03 µM at LXRα; 6.5 µM in data set [1]. Further, in the data set with C57BL6 mice (Real-Time PCR), the “expression of GPBAR1 target genes GLP1 and Fgf21 in terminal ileum” value was “increases”. Besides, the “liver expression of steatosis marker genes FAS, SREBP1c, CD36 and PPARs” value in the data set on C57BL6 mice (Real-Time PCR on liver tissue) was “does not induce”. The “liver histology (H&E staining), fat deposition” value with C57BL6 mice (vs control) is recorded as “no differences”. Moreover, the “plasmatic level of AST” value with C57BL6 mice (vs control) is “no effects”. Besides, the “plasmatic level of cholesterol” value with C57BL6 mice (vs control) is “no effects”. Besides, the “plasmatic level of triglycerides” value in the data set with C57BL6 mice (vs control) is given as “no effects”. The Emax at 10 µM on LXRα was 109%.
On to `CC(C)CCCC(C)C1CCC2C3CC(O)C4CC(O)CCC4(C)C3CCC12C` (stereo not shown) [Compound 5], for which, on LXRα, the Emax at 10 µM is 73% and the EC50 turned out to be 8.2 ± 0.16 µM.
Turning to `CCCC[C@@H](C)[C@H]1CCC2C3CC[C@@H]4C[C@H](O)CC[C@]4(C)C3CC[C@@]21C` (stereo partly shown) [Compound 20], the EC50 on GPBAR1 is 6.8 ± 0.08 µM.
For `C[C@H](CCC(=O)O)[C@H]1CC[C@H]2[C@@H]3C[C@H](O)[C@@H]4C[C@H](O)CC[C@]4(C)[C@H]3CC[C@]12C` [HDCA, hyodeoxycholic acid], the EC50 in data set [2] was 31.6 µM.
On to `C=CCC(C)C1CCC2C3CC(O)C4CC(O)CCC4(C)C3CCC12C` (stereo not shown) [Compound 15], for which the concentration for a half-maximal effect (EC50) on GPBAR1 came to 3.7 ± 0.38 µM.
Take `CC(C)=CCCC(C)C1CCC2C3CC(O)C4CC(O)CCC4(C)C3CCC12C` (stereo not shown) [Compound 4]: the half-maximal effective concentration (EC50) on LXRα was 6.99 ± 0.31 µM.
In the case of `CC[C@@H](C)[C@H]1CCC2C3CC[C@H]4C[C@@H](O)CC[C@]4(C)C3CC[C@@]21C` (stereo partly shown) [Compound 30], the EC50 at GPBAR1 was determined as 1.98 ± 0.145 µM.
As for `C=CC(C)C1CCC2C3CC(O)C4CC(O)CCC4(C)C3CCC12C` (stereo not shown) [Compound 17], the half-maximal effective concentration (EC50) on GPBAR1 amounted to 2.54 ± 0.015 µM.
On the same count and under the same terms, in the case of `CC(C)=CCC[C@@H](C)[C@H]1CCC2C3CC[C@H]4C[C@@H](O)CC[C@]4(C)C3CC[C@@]21C` (stereo partly shown) [Compound 25] it was 7.6 ± 0.71 µM.
For the compound `CCCCC(C)C1CCC2C3CC(O)C4CC(O)CCC4(C)C3CCC12C` (stereo not shown) [Compound 9], the concentration giving a half-maximal response (EC50) on LXRα is 5.1 ± 0.43 µM.
For the compound `CC[C@@H](C)[C@H]1CCC2C3CC[C@@H]4C[C@H](O)CC[C@]4(C)C3CC[C@@]21C` (stereo partly shown) [Compound 24], the EC50 on GPBAR1 turned out to be 0.91 ± 0.092 µM.
Take `C=CCCC(C)C1CCC2C3CC(O)C4CC(O)CCC4(C)C3CCC12C` (stereo not shown) [Compound 8]: the half-maximal effective concentration (EC50) on LXRα is 2.7 ± 0.65 µM.
Consider `C=CCC[C@@H](C)[C@H]1CCC2C3CC[C@H]4C[C@@H](O)CC[C@]4(C)C3CC[C@@]21C` (stereo partly shown) [Compound 27], for which the EC50 at GPBAR1 came to 1 ± 0.062 µM.
For the compound `CC(C)=CCC(C)C1CCC2C3CC(O)C4CC(O)CCC4(C)C3CCC12C` (stereo not shown) [Compound 13], the 50% effective concentration (EC50) at GPBAR1 turned out to be 4.2 ± 0.79 µM; at LXRα, 22.3 ± 3.05 µM.
As for `C=C[C@@H](C)[C@H]1CCC2C3CC[C@H]4C[C@@H](O)CC[C@]4(C)C3CC[C@@]21C` (stereo partly shown) [Compound 29], on GPBAR1, the EC50 came out at 4.9 ± 0.06 µM.
Regarding `CC(C)=CCC[C@@H](C)[C@H]1CCC2C3CC[C@@H]4C[C@H](O)CC[C@]4(C)C3CC[C@@]21C` (stereo partly shown) [Compound 21], at GPBAR1, the EC50 came out at 5.9 ± 0.055 µM.
With `CC(CCCCc1ccccc1)C1CCC2C3CC(O)C4CC(O)CCC4(C)C3CCC12C` (stereo not shown) [Compound 12], at LXRα, the Emax at 10 µM was 63% and the EC50 is 12.4 ± 0.41 µM.
